Measured values as given in patent US20030022926A1, “Method for treating neuropathic pain and pharmaceutical preparation therefor” (priority 2001, published 2003).
Read-outs that look alike come from different tables or passages of the source.

Assays:
[1] = test system: thermal hyperalgesia in rats with partial ligation of sciatic nerve; conditions: ligated side
From the text: (§1) After Institutional Animal Care Committee approval, adult male Wistar rats (Hanovre, weight 150 -180 g) underwent partial sciatic nerve ligation of the right sciatic nerve as described by Seltzer et al (Seltzer 1990). Briefly, under halothane anesthesia, the right sciatic nerve was exposed at high-thigh level and liberated from surrounding tissues. One third to one half of the nerve was then tightly ligated with silicon-treated silk suture (Prolene 7-0) before those muscle and skin layers were closed. The animals were allowed to recover for four to six weeks, lag of time sufficient to develop neuropathic pain features.
(§2) Only the animals which had developed satisfactory Mechanical Allodynia and Thermal Hyperalgesia were used to assess the efficacy of peripheral nerve blockade.
The rats were anesthetized with 4% halothane inhaled concentration in 100% oxygen by face mask. An unilateral percutaneous sciatic nerve block was then performed on the right ligated side. A 25-gauge needle was introduced between the greater trochanter and the ischial tuberosity, both landmarks previously localized by palpation, according to the technique reported by Thalhammer (Thalhammer JG, et al Neurologic evaluation of the rat during sciatic nerve block with lidocaine. Anesthesiology. 1995 Apr;82(4):1013-25). […]
Values are expressed as mean±SD.

[2] = test system: mechanical allodynia in rats with partial ligation of sciatic nerve
From the text: A validated animal model of neuropathic pain was used that results from a partial ligation of one sciatic nerve in rat (Seltzer 1990). Nerve ligation and subsequent edema represents an experimental model for mechanisms operative in both nociceptive nerve pain and pain due to partial deafferentation (Asbury A, Fields H. Pain due to peripheral nerve damage: an hypothesis. Neurology 1984; 34: 1587-1590). This model thereby closely mimics the clinical situation found in several cancerous patients.
as §1
Mechanical allodynia was assessed by application of calibrated Von Frey filaments (Stoelting, Wood Dale, Ill.), ranging from 1.2 g to 28.8 g.
The animals were placed on a plastic mesh floor into individual boxes. After accommodation to the environment, the Von Frey filaments were applied vertically to the plantar surface of the ligated hind paw and gently bent 3-4 times over approximately 2 sec. if no response was elicited, a larger filament was applied in the same manner. The filaments were applied in increasing order until a brisk withdrawal or paw flinching occurred, that was considered as a positive response. The filament applications were repeated three times, with five to ten minutes interval between testing. The withdrawal threshold was determined as the mean of the three values.
as §2
(§3) The rats were anesthetized with 4% halothane inhaled concentration in 100% oxygen by face mask. An unilateral percutaneous sciatic nerve block was then performed on the right ligated side. A 25-gauge needle was introduced between the greater trochanter and the ischial tuberosity, both landmarks previously localized by palpation, according to the technique reported by Thalhammer (Thalhammer JG, et al Neurologic evaluation of the rat during sciatic nerve block with lidocaine. Anesthesiology. 1995 Apr;82(4):1013-25). Different mixtures of saline and alpha-2-adrenergic agonist were then injected in a total volume of 0.3 ml.
A single sciatic block (SB) injection of the following drugs was realized: Saline (n=6), Saline and intramuscular (IM) clonidine 30 μg (n=11), Clonidine 15 μg (n=8), Clonidine 3 μg (n=9). The drug used in the study for peripheral nerve block was: clonidine marketed for clinical use (Catapressan®, Boehringer Ingelheim). The drug was diluted in isotonic saline.
The animals were tested as previously described for both Mechanical Allodynia and Thermal Hyperalgesia at day0 (5 hours after sciatic nerve injection), day 1, day 3, day 7, day 10, day 14 and day 21 post drug injection.
For Mechanical Allodynia, Paw withdrawal threshold (PWT) values were converted to percent of maximum possible effect (% MPE), according to the formula:
% MPE=(post-drug infiltration threshold−baseline post-ligation threshold)/(pre-ligation threshold−baseline post-ligation threshold)×100
Values are expressed as mean±SD. The percent maximum possible effect data were used to calculate the respective ED50 values of clonidine and clonidine combinations using linear regression.

[3] = test system: neuropathic pain
From the text: The patient was then referred to the Pain Clinic to benefit from neuraxial analgesia (either epidural or intrathecal catheter placement). However, long-term spinal catheter is not devoid of side effects, both related to the technique, especially the risk of infection and to the drugs used.

[4] = Procedure: as §3
[5] = test system: phosphorylated cAMP response element binding protein (pCREB)
Method: The L4-5 spinal cord segments and the ipsilateral and contralateral sciatic nerve segments at both proximal and mid-thigh levels were removed and postfixed in the same fixative for 3-6 hours. Then all tissues were transferred to 30% sucrose in 0.1 M PB at 40° C. for cryoprotection. The spinal cord segments were cut on a cryostat at a 40 μm thickness. The free-floating sections were collected in PBS. After being pre-treated with 0.3% H 202 and 10% normal goat serum (NGS, Vector Laboratories, Burlingame, Calif.), sections were incubated for 36 hours at 40° C. in a rabbit polyclonal anti-phospho-CREB antibody (1:1,000, New England Biolabs, Beverly, Mass., U.S.A.) diluted in phosphate buffered saline containing 0.3% Triton-×100 (PBS+T) and 3% NGS. Subsequently, the sections were incubated in biotinylated goat anti-rabbit IgG (Vector) and further processed using Elite Vectastain ABC kit (Vector) according to the instructions of the manufacturer. Between each incubation, sections were washed in PBS+T (15 min twice). Finally, the immunoprecipitates were developed by 3,-3′ diaminobenzedine (DAB) and the chromogen was enhanced by the glucose oxidase-nickel-3,-3′ DAB method.
Images of both ipsilateral and contralateral dorsal horns of nerve injured rats or from the dorsal horn of normal rats were captured at ×250 magnification using a CCD camera. In a given area (235 μm×235 μm), which covered the entire LI to LII in depth and was located in the middle one third of the mediolateral extent of the dorsal horn, the number of pixels occupied by pCREB-IR cells on each side was measured automatically using image analysis software (SigmaScan, Jandel Scientific Inc., San Rafael, Calif., U.S.A.). Values are expressed as mean+SEM. Groups were compared using two-way ANOVA followed by Dunnett's or Fishers LSD test. To compare the mean number of the pixels occupied by pCREB-IR cells between two-side dorsal horn, a paired t-test or one-way ANOVA with Student-Newman-Keuls multiple comparison method was used. P<0.05 was considered significant.

[6] = ipsilateral and contralateral, compared to saline controls (p<0.001)
[7] = one week after single peripheral nerve injection at the injury site, 30 mg as printed

For `Clc1cccc(Cl)c1NC1=NCCN1` [clonidine, N-(2,6-dichlorophenyl)-4,5-dihydro-1H-imidazol-2-amine], the “effect of peripheral nerve block on thermal hyperalgesia (in words)” value [1] was “alleviated the thermal hyperalgesia in a dose-related manner”, the “PWT values (Paw Withdrawal threshold)” value ([2]; intramuscular (IM) clonidine 30 μg, D0 (5 h)) was 2.6 ± 1.8 g and the “PWT values (Paw Withdrawal threshold)” value ([2]; intramuscular (IM) clonidine 30 μg, D1) was 7.9 ± 4.2 g. For the same compound, the “PWT values (Paw Withdrawal threshold)” value ([2]; intramuscular (IM) clonidine 30 μg, D3) was 4.3 ± 2.8 g, the “PWT values (Paw Withdrawal threshold)” value ([2]; intramuscular (IM) clonidine 30 μg, D7) was 5.2 ± 2.8 g and the “PWT values (Paw Withdrawal threshold)” value ([2]; intramuscular (IM) clonidine 30 μg, D10) was 3.6 ± 2.3 g. For the same compound, the “PWT values (Paw Withdrawal threshold)” value ([2]; intramuscular (IM) clonidine 30 μg, D14) was 2.0 ± 3.3 g, the “PWT values (Paw Withdrawal threshold)” value ([2]; intramuscular (IM) clonidine 30 μg, D21) was 3.6 ± 1.4 g and the “peak effect on mechanical allodynia, day post injection” value ([2]; peripheral sciatic block 3 to 30 μg, four to six weeks after nerve injury) was 7 days. The “Maximal effect in alleviating Mechanical Allodynia” value (“Maximal effect” below) ([2]; sciatic block 3 μg, at D1) was 34.2±5.1 % MPE, the “Maximal effect” value ([2]; sciatic block 15 μg, at D3) was 40.5±6.4 % MPE and the “Maximal effect” value ([2]; sciatic block 30 μg, at D7) was 76.6±9.2 % MPE. The “PWT values (Paw Withdrawal threshold)” value ([2]; sciatic block (SB) 3 μg, D0 (5 h)) was 4.7 ± 4 g, the “PWT values (Paw Withdrawal threshold)” value ([2]; sciatic block (SB) 3 μg, D1) was 12.0 ± 4 g and the “PWT values (Paw Withdrawal threshold)” value ([2]; sciatic block (SB) 3 μg, D3) was 10.3 ± 5 g. For the same compound, the “PWT values (Paw Withdrawal threshold)” value ([2]; sciatic block (SB) 3 μg, D7) was 8.2 ± 4 g, the “PWT values (Paw Withdrawal threshold)” value ([2]; sciatic block (SB) 3 μg, D10) was 7.0 ± 3 g and the “PWT values (Paw Withdrawal threshold)” value ([2]; sciatic block (SB) 3 μg, D14) was 5.0 ± 2 g. The “PWT values (Paw Withdrawal threshold)” value ([2]; sciatic block (SB) 3 μg, D21) was 4.3 ± 1 g, the “PWT values (Paw Withdrawal threshold)” value ([2]; sciatic block (SB) 15 μg, D0 (5 h)) was 4.8 ± 2 g and the “PWT values (Paw Withdrawal threshold)” value ([2]; sciatic block (SB) 15 μg, D1) was 12.6 ± 6 g. For the same compound, the “PWT values (Paw Withdrawal threshold)” value ([2]; sciatic block (SB) 15 μg, D3) was 12.9 ± 5 g, the “PWT values (Paw Withdrawal threshold)” value ([2]; sciatic block (SB) 15 μg, D7) was 8.8 ± 3 g and the “PWT values (Paw Withdrawal threshold)” value ([2]; sciatic block (SB) 15 μg, D10) was 9.7 ± 4 g. For the same compound, the “PWT values (Paw Withdrawal threshold)” value ([2]; sciatic block (SB) 15 μg, D14) was 6.4 ± 3 g, the “PWT values (Paw Withdrawal threshold)” value ([2]; sciatic block (SB) 15 μg, D21) was 3.7 ± 1 g and the “PWT values (Paw Withdrawal threshold)” value ([2]; sciatic block (SB) 30 μg, D0 (5 h)) was 9.3 ± 6 g. For the same compound, the “PWT values (Paw Withdrawal threshold)” value ([2]; sciatic block (SB) 30 μg, D1) was 14.7 ± 10 g, the “PWT values (Paw Withdrawal threshold)” value ([2]; sciatic block (SB) 30 μg, D3) was 23.7 ± 11 g and the “PWT values (Paw Withdrawal threshold)” value ([2]; sciatic block (SB) 30 μg, D7) was 23.0 ± 7 g. The “PWT values (Paw Withdrawal threshold)” value ([2]; sciatic block (SB) 30 μg, D10) was 11.9 ± 3 g, the “PWT values (Paw Withdrawal threshold)” value ([2]; sciatic block (SB) 30 μg, D14) was 11.4 ± 4 g and the “PWT values (Paw Withdrawal threshold)” value ([2]; sciatic block (SB) 30 μg, D21) was 7.8 ± 3 g. The “effect of single peripheral sciatic block on mechanical allodynia (in words)” value ([2]; single sciatic block, neuropathic rats) was “significantly alleviated mechanical allodynia”, the maximal antiallodynic effect ([2]; systemic injection (IM) 30 μg, at day 0 (5 hours post-sciatic blockade)) was 20.7±5.7 % MPE and the “duration of strong alleviation of neuropathic pain after a single femoral block injection” value ([3]; clonidine alone) was “more than ten”. For the same compound, the “onset of the antihyperalgesic effect” value ([3]; clonidine alone, femoral block) was “four to five”, the “efficacy of clonidine alone versus initial mixture” value ([3]; femoral block, local anesthetic and steroid withdrawn) was “as effective as previous combination” and the “tolerance on repetitive blocks” value ([3]; repetitive peripheral nerve blocks in the cancerous patient) was “without apparition of tolerance”. The sedation ([4]; after clonidine injection in rats) was “mild transitory sedation”, the “motor blockade or motor deficit” value ([4]; peripheral sciatic nerve block in rats) was “did not result into motor blockade or subsequent motor deficit” and the “mean number of pixels in a fixed area occupied by pCREB-IR cells in the dorsal horn” value [5, 6] was “significantly reduced”. For the same compound, the “mean optical density in a fixed area occupied by pCREB-IR cells in the dorsal horn” value [5, 6] was “significantly reduced”, the “increase in pCREB-IR cells in the ipsilateral dorsal horn” value [5, 7] was “dramatically suppressed” and the “number of pCREB-IR cells in the contralateral dorsal horn” value [5, 7] was “markedly reduced”.
